Reference: US20260372303A1, “5-Fluoro-4-Imino-3-Methyl-1-Tosyl-3, 4-Dihydropyrimidin-2(1H) -One for Fungicide-Resistant Fungus” (priority 2022, published 2026)

How the values were obtained:
Format in all cases: in vivo
[1] = system: Zymoseptoria tritici strain Zt StA; assay: In planta preventive efficacy on wheat cv. Alixan against Zymoseptoria tritici strain Zt StA (control strain, sensitive); conditions: for Disease Severity Intensity: % of length of 2nd leaf blade, preventive 24 h; for AUDPC: control 781.6
Method: (§1) A series of experiments were conducted to evaluate the efficacy of flumetylsulforim (ADF-16) for treating different strains of Zymoseptoria tritici in comparison with commercially available fungicides. Table 1 describes the Z. tritici strains used in this study and Table 2 describes the fungicides used in this study.
(§2) Winter wheat plants cv. Alixan (Limagrain) at the BBCH 12 growth stage were treated preventively with sterile distilled water (control), ADF-16, penthiopyrad, metconazole or tebuconazole at the rates described in Table 2 with a hand sprayer at 2 bars.
(§3) After treatment, wheat plants were left to dry at room temperature for 1 hour and then placed in a climatic chamber: temperature of 24 °C day/18 °C night-photoperiod of 16 h light/8 h dark and a relative humidity of 65%.
(§4) Untreated or treated whole wheat plants were inoculated 24-hours post-treatment with a calibrated pycnospore suspension of Z. tritici strains Zt StA, Zt 61, Zt 99, Zt 20, Zt 19-52, and Zt 38-02. Three replicates (pots) of 6 wheat plants each were used for each condition tested.
(§5) After inoculation, pots were transferred in a climatic chamber: temperature of 20 °C day/17 °C night—photoperiod of 16 h light/8 h dark and controlled relative humidity.
(§6) Disease assessments were carried out at 15 days post inoculation (dpi), 21 dpi and 28 dpi by measuring the length of the necrosis on the second leaf blade. The intensity of infection was then determined as a percentage of the total length of 2nd leaf blade.
(§7) The fungicide efficacies were determined from the Area Under the Disease Progress Curve (AUDPC) values and expressed as a percentage of the untreated control.
(§8) The AUDPC is a quantitative measure of disease intensity over time. The most commonly used method for estimating the AUDPC, the trapezoidal method, is performed by multiplying the average disease intensity between each pair of adjacent timepoints by the corresponding time interval and this for each time interval. The AUDPC is determined with the following formula by adding all of the trapezoids:
(§9) [formula] • yi=disease severity at the ith observation • ti=time (days) at the ith observation • N=total number of observations

[2] = system: Zymoseptoria tritici strain Zt 61; assay: In planta preventive efficacy on wheat cv. Alixan against Zymoseptoria tritici strain Zt 61; design: fungicide efficacy: concentration or dose not given beside the values; conditions: for Disease Severity Intensity: % of length of 2nd leaf blade, preventive 24 h; for AUDPC: control 1194.9
Method: as §1, §2, §3, §4, §5, §6, §7, §8, §9

[3] = system: Zymoseptoria tritici strain Zt 99; assay: In planta preventive efficacy on wheat cv. Alixan against Zymoseptoria tritici strain Zt 99; conditions: for Disease Severity Intensity: % of length of 2nd leaf blade, preventive 24 h; for AUDPC: control 1352.9
Method: as §1, §2, §3, §4, §5, §6, §7, §8, §9

[4] = system: Zymoseptoria tritici strain Zt 19-52; assay: In planta preventive efficacy on wheat cv. Alixan against Zymoseptoria tritici strain Zt 19-52; conditions: % of length of 2nd leaf blade, preventive 24 h
Method: as §1, §2, §3, §4, §5, §6, §7, §8, §9

[5] = system: Zymoseptoria tritici strain Zt 20; assay: In planta preventive efficacy on wheat cv. Alixan against Zymoseptoria tritici strain Zt 20; conditions: % of length of 2nd leaf blade, preventive 24 h
Method: as §1, §2, §3, §4, §5, §6, §7, §8, §9

[6] = system: Zymoseptoria tritici strain Zt 38-02; assay: In planta preventive efficacy on wheat cv. Alixan against Zymoseptoria tritici strain Zt 38-02; conditions: for Disease Severity Intensity: % of length of 2nd leaf blade, preventive 24 h; for AUDPC: control 1261.4
Method: as §1, §2, §3, §4, §5, §6, §7, §8, §9

[7] = 15 dpi, rate N (g a.i./ha): ADF-16 100, penthiopyrad 200, metconazole 90, tebuconazole 250, control also no disease
[8] = 15 dpi, rate N/2.5 (g a.i./ha): ADF-16 40, penthiopyrad 80, metconazole 36, tebuconazole 100, control also no disease
[9] = rate N (g a.i./ha): ADF-16 100, penthiopyrad 200, metconazole 90, tebuconazole 250
[10] = rate N/2.5 (g a.i./ha): ADF-16 40, penthiopyrad 80, metconazole 36, tebuconazole 100

CC1(C)CCC(Cc2ccc(Cl)cc2)C1(O)Cn1cncn1 (centres unmarked) [Metconazole]
Disease Severity Intensity [1, 7]: No disease
Disease Severity Intensity [1, 8]: No disease
Disease Severity Intensity ([1]; 21 dpi, rate N (g a.i./ha): ADF-16 100, penthiopyrad 200, metconazole 90, tebuconazole 250, control 36.5): 0.0 +/− 0.0b %
Disease Severity Intensity ([1]; 21 dpi, rate N/2.5 (g a.i./ha): ADF-16 40, penthiopyrad 80, metconazole 36, tebuconazole 100, control 36.5): 0.0 +/− 0.0b %
Disease Severity Intensity ([1]; 28 dpi, rate N (g a.i./ha): ADF-16 100, penthiopyrad 200, metconazole 90, tebuconazole 250, control 77.4): 0.0 +/− 0.0b %
Disease Severity Intensity ([1]; 28 dpi, rate N/2.5 (g a.i./ha): ADF-16 40, penthiopyrad 80, metconazole 36, tebuconazole 100, control 77.4): 0.0 +/− 0.0b %
Efficacy (from AUDPC, percentage of the untreated control) [1, 9]: 100%
AUDPC [1, 9]: 0.0 +/− 0.0b
Efficacy (from AUDPC, percentage of the untreated control) [1, 10]: 100%
AUDPC [1, 10]: 0.0 +/− 0.0b
Disease Severity Intensity [2, 7]: No disease
Disease Severity Intensity [2, 8]: No disease
Disease Severity Intensity ([2]; 21 dpi, rate N/2.5 (g a.i./ha): ADF-16 40, penthiopyrad 80, metconazole 36, tebuconazole 100, control 63.3): 10.1 +/− 1.6c %
Disease Severity Intensity ([2]; 28 dpi, rate N (g a.i./ha): ADF-16 100, penthiopyrad 200, metconazole 90, tebuconazole 250, control 88.1): 35.1 +/− 3.8d %
Disease Severity Intensity ([2]; 28 dpi, rate N/2.5 (g a.i./ha): ADF-16 40, penthiopyrad 80, metconazole 36, tebuconazole 100, control 88.1): 65.6 +/− 4.2bc %
fungicide efficacy ([2]; higher application rates (N)): ≥ 85%
fungicide efficacy ([2]; lower application rates (N/2.5)): ≤ 70%
Efficacy (from AUDPC, percentage of the untreated control) [2, 9]: 85.9%
AUDPC [2, 9]: 168.8 +/− 45.4cd
Efficacy (from AUDPC, percentage of the untreated control) [2, 10]: 68.9%
AUDPC [2, 10]: 371.8 +/− 48.7b
Disease Severity Intensity ([3]; 15 dpi, rate N (g a.i./ha): ADF-16 100, penthiopyrad 200, metconazole 90, tebuconazole 250, control 47.9): 0.0 +/− 0.0d %
Disease Severity Intensity ([3]; 15 dpi, rate N/2.5 (g a.i./ha): ADF-16 40, penthiopyrad 80, metconazole 36, tebuconazole 100, control 47.9): 1.3 +/− 1.2d %
Disease Severity Intensity ([3]; 21 dpi, rate N (g a.i./ha): ADF-16 100, penthiopyrad 200, metconazole 90, tebuconazole 250, control 81.0): 18.2 +/− 2.6d %
Disease Severity Intensity ([3]; 21 dpi, rate N/2.5 (g a.i./ha): ADF-16 40, penthiopyrad 80, metconazole 36, tebuconazole 100, control 81.0): 58.7 +/− 2.8c %
Disease Severity Intensity ([3]; 28 dpi, rate N (g a.i./ha): ADF-16 100, penthiopyrad 200, metconazole 90, tebuconazole 250, control 92.2): 86.3 +/− 2.4ab %
Disease Severity Intensity ([3]; 28 dpi, rate N/2.5 (g a.i./ha): ADF-16 40, penthiopyrad 80, metconazole 36, tebuconazole 100, control 92.2): 84.6 +/− 4.3b %
Efficacy (from AUDPC, percentage of the untreated control) [3, 9]: 69.0%
AUDPC [3, 9]: 419.9 +/− 29.6e
Efficacy (from AUDPC, percentage of the untreated control) [3, 10]: 48.9%
AUDPC [3, 10]: 691.1 ± 28.1 days
Disease Severity Intensity ([4]; 15 dpi, rate N (g a.i./ha): ADF-16 100, penthiopyrad 200, metconazole 90, tebuconazole 250, control 22.0): 0.0 +/− 0.0b %
Disease Severity Intensity ([4]; 15 dpi, rate N/2.5 (g a.i./ha): ADF-16 40, penthiopyrad 80, metconazole 36, tebuconazole 100, control 22.0): 0.0 +/− 0.0b %
Disease Severity Intensity ([4]; 21 dpi, rate N (g a.i./ha): ADF-16 100, penthiopyrad 200, metconazole 90, tebuconazole 250, control 81.7): 0.3 +/− 0.2c %
Disease Severity Intensity ([4]; 21 dpi, rate N/2.5 (g a.i./ha): ADF-16 40, penthiopyrad 80, metconazole 36, tebuconazole 100, control 81.7): 2.1 +/− 0.8b %
Disease Severity Intensity ([4]; 28 dpi, rate N (g a.i./ha): ADF-16 100, penthiopyrad 200, metconazole 90, tebuconazole 250, control 91.0): 12.0 +/− 1.9c %
Disease Severity Intensity ([4]; 28 dpi, rate N/2.5 (g a.i./ha): ADF-16 40, penthiopyrad 80, metconazole 36, tebuconazole 100, control 91.0): 22.4 +/− 2.3b %
Disease Severity Intensity [5, 7]: No disease
Disease Severity Intensity [5, 8]: No disease
Disease Severity Intensity ([5]; 21 dpi, rate N (g a.i./ha): ADF-16 100, penthiopyrad 200, metconazole 90, tebuconazole 250, control 77.2): 1.9 +/− 0.7cd %
Disease Severity Intensity ([5]; 21 dpi, rate N/2.5 (g a.i./ha): ADF-16 40, penthiopyrad 80, metconazole 36, tebuconazole 100, control 77.2): 15.1 +/− 2.8b %
Disease Severity Intensity ([5]; 28 dpi, rate N (g a.i./ha): ADF-16 100, penthiopyrad 200, metconazole 90, tebuconazole 250, control 95.5): 33.0 +/− 3.6d %
Disease Severity Intensity ([5]; 28 dpi, rate N/2.5 (g a.i./ha): ADF-16 40, penthiopyrad 80, metconazole 36, tebuconazole 100, control 95.5): 78.0 +/− 5.0b %
Disease Severity Intensity ([6]; 15 dpi, rate N (g a.i./ha): ADF-16 100, penthiopyrad 200, metconazole 90, tebuconazole 250, control 36.0): 0.0 +/− 0.0b %
Disease Severity Intensity ([6]; 15 dpi, rate N/2.5 (g a.i./ha): ADF-16 40, penthiopyrad 80, metconazole 36, tebuconazole 100, control 36.0): 1.7 +/− 0.9b %
Disease Severity Intensity ([6]; 21 dpi, rate N (g a.i./ha): ADF-16 100, penthiopyrad 200, metconazole 90, tebuconazole 250, control 84.3): 25.6 +/− 3.9d %
Disease Severity Intensity ([6]; 21 dpi, rate N/2.5 (g a.i./ha): ADF-16 40, penthiopyrad 80, metconazole 36, tebuconazole 100, control 84.3): 61.8 +/− 2.5bc %
Disease Severity Intensity ([6]; 28 dpi, rate N (g a.i./ha): ADF-16 100, penthiopyrad 200, metconazole 90, tebuconazole 250, control 95.7): 82.4 +/− 3.4c %
Disease Severity Intensity ([6]; 28 dpi, rate N/2.5 (g a.i./ha): ADF-16 40, penthiopyrad 80, metconazole 36, tebuconazole 100, control 95.7): 92.1 +/− 1.2b %
Efficacy (from AUDPC, percentage of the untreated control) [6, 9]: 64.0%
AUDPC [6, 9]: 454.7 +/− 29.0c
Efficacy (from AUDPC, percentage of the untreated control) [6, 10]: 41.1%
AUDPC [6, 10]: 743.0 +/− 14.9b
